From article PMC8242589, “Cardiac Safety of Kinase Inhibitors – Improving Understanding and Prediction of Liabilities in Drug Discovery Using Human Stem Cell-Derived Models” (Frontiers in Cardiovascular Medicine, 2021)
pIC50: −log10 of the molar value. Like-named read-outs stand apart in the source and are kept apart here.

Assays:
[1] = tested on: hSC-CMs (Cor.4U Cardiomyocytes); experiment: CardioExcyte 96 impedance and EFP recording (beating rate, base impedance); format: cell-based, human; settings: for activity at 0.03 µM / activity at 0.3 µM / activity at 3 µM / activity at 30 µM: Homo sapiens, Cardiomyocyte, vs baseline before drug (taken as 100%)
Outline: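 hSC-CM monolayers (Cor.4U), cultured 4 days at 37 °C, 5% CO2, recorded spontaneously beating; impedance sampled at 1 kHz, EFP at 10 kHz. Beating rate taken as reciprocal of inter-spike interval in EFP. Each test concentration expressed as fractional change versus pre-drug baseline (100%).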

[2] = tested on: hSC-CMs (Cor.4U Cardiomyocytes); experiment: Apoptosis assay (CellEvent Caspase-3/7 Green, IncuCyte ZOOM kinetics over 24 h); format: cell-based, human; set-up: key to Caspase / Caspase MEAN: % of time-matched vehicle control (green object area); settings: for Apoptosis (caspase-3/7 activation), result in words / Time to reach the maximum number of apoptotic cells: hSC-CMs, monitored over 24 h; for activity at 0.03 µM / activity at 0.3 µM / activity at 3 µM / activity at 30 µM / activity at 0.1 µM / activity at 1 µM: Homo sapiens, Cardiomyocyte, normalized to time-matched vehicle control
Outline: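 Apoptosis was followed kinetically with a caspase-3/7 green fluorescent probe, imaging phase contrast and fluorescence every 2 h through 24 h compound exposure, after a 2 h baseline. Human stem cell-derived cardiomyocytes had been pre-cultured 4 days at 37 °C. Green object area per well was expressed relative to time-matched vehicle, with ≥3 replicates per concentration.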

[3] = tested on: hSC-CMs (Cor.4U Cardiomyocytes); experiment: ATP assay (CellTiter-Glo Luminescent Cell Viability Assay); format: cell-based, human; settings: for viability at 0.03 µM / viability at 0.3 µM / viability at 3 µM / viability at 30 µM: Homo sapiens, Cardiomyocyte, normalized to time-matched DMSO control
Outline: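 Human stem-cell-derived Cor.4U cardiomyocytes (25,000–30,000/well), cultured 4 days at 37 °C, switched to serum-free BMCC medium 12 h before dosing. Cellular ATP quantified by CellTiter-Glo luminescence and normalized to time-matched DMSO controls; at least three replicates per concentration.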

[4] = tested on: GSK-3β; settings: ref [46] (CHIR99021), [48] (TWS119); read-out: Target IC50 GSK-3β; cited from earlier work
[5] = tested on: PI3K p110β; settings: ref [23]–[25] (NVP-BEZ235), [27] (LY 294002), [28] (GDC-0941), [32] (TGX-221), [33] (CAL-101), [35] (CZC24832); read-out: Target IC50 p110β; cited from earlier work
[6] = tested on: PI3K p110δ; settings: ref [23]–[25] (NVP-BEZ235), [27] (LY 294002), [28] (GDC-0941), [33] (CAL-101); read-out: Target IC50 p110δ; cited from earlier work
[7] = tested on: PI3K p110α; settings: ref [23]–[25] (NVP-BEZ235), [27] (LY 294002), [28] (GDC-0941), [31] (HS-173), [33] (CAL-101); read-out: Target IC50 p110α; cited from earlier work
[8] = tested on: PI3K p110γ; settings: ref [23]–[25] (NVP-BEZ235), [28] (GDC-0941), [33] (CAL-101), [35] (CZC24832); read-out: Target IC50 p110γ; cited from earlier work

Nc1cccc(-c2cc3c(Oc4cccc(O)c4)ncnc3[nH]2)c1 [TWS119]
Effect on cardiomyocyte function in 3D surface plots (beating rate, base impedance, ATP), in words [1]: minimal functional effect
Effect on hSC-CMs function (base impedance and beating rate), in words [1]: did not produce functionally relevant changes
BR ([1]; 2h, 0.01 µM): 107
Base Imp ([1]; 2h, 0.01 µM): 90
BR ([1]; 2h, 0.1 µM): 102
Base Imp ([1]; 2h, 0.1 µM): 86
BR ([1]; 2h, 1 µM): 103
Base Imp ([1]; 2h, 1 µM): 91
BR ([1]; 2h, 10 µM): 103
Base Imp ([1]; 2h, 10 µM): 90
BR ([1]; 24h, 0.01 µM): 107
Base Imp ([1]; 24h, 0.01 µM): 86
BR ([1]; 24h, 0.1 µM): 105
Base Imp ([1]; 24h, 0.1 µM): 91
BR ([1]; 24h, 1 µM): 104
Base Imp ([1]; 24h, 1 µM): 88
BR ([1]; 24h, 10 µM): 99
Base Imp ([1]; 24h, 10 µM): 84
Caspase ([2]; 2h, 0.01 µM): 142
Caspase ([2]; 2h, 0.1 µM): 127
Caspase ([2]; 2h, 1 µM): 127
Caspase ([2]; 2h, 10 µM): 105
Caspase ([2]; 24h, 0.01 µM): 137
Caspase ([2]; 24h, 0.1 µM): 114
Caspase ([2]; 24h, 1 µM): 96
Caspase ([2]; 24h, 10 µM): 113
Apoptosis (caspase-3/7 activation), result in words [2]: did not have any functionally-relevant effect
ATP ([3]; 2h, 0.01 µM): 94
ATP ([3]; 2h, 0.1 µM): 98
ATP ([3]; 2h, 1 µM): 98
ATP ([3]; 2h, 10 µM): 96
ATP ([3]; 24h, 0.01 µM): 102
ATP ([3]; 24h, 0.1 µM): 98
ATP ([3]; 24h, 1 µM): 98
ATP ([3]; 24h, 10 µM): 104
Effect on ATP level, in words ([3]; hSC-CMs, up to the highest test concentrations): did not impact the ATP level
pIC50 [4]: 7.52

O=c1cc(N2CCOCC2)oc2c(-c3ccccc3)cccc12 [LY 294002]
activity at 0.03 µM ([1]; 2h, read-out: BR): 112%
activity at 0.03 µM ([1]; 2h, read-out: Base Imp): 72%
activity at 0.03 µM ([1]; 24h, read-out: BR): 111%
activity at 0.03 µM ([1]; 24h, read-out: Base Imp): 72%
activity at 0.3 µM ([1]; 2h, read-out: BR): 109%
activity at 0.3 µM ([1]; 2h, read-out: Base Imp): 71%
activity at 0.3 µM ([1]; 24h, read-out: BR): 94%
activity at 0.3 µM ([1]; 24h, read-out: Base Imp): 75%
activity at 3 µM ([1]; 2h, read-out: BR): 94%
activity at 3 µM ([1]; 2h, read-out: Base Imp): 70%
activity at 3 µM ([1]; 24h, read-out: BR): 63%
activity at 3 µM ([1]; 24h, read-out: Base Imp): 59%
activity at 30 µM ([1]; 2h, read-out: BR): 0%
activity at 30 µM ([1]; 2h, read-out: Base Imp): 50%
activity at 30 µM ([1]; 24h, read-out: BR): 0%
activity at 30 µM ([1]; 24h, read-out: Base Imp): 33%
Effect on cardiomyocyte function in 3D surface plots (beating rate, base impedance, ATP), in words ([1]; hSC-CMs, 2 and 24 h): pronounced effects
Reduction of base impedance ([1]; hSC-CMs, 2 and 24 h): more than 20%
Reduction of beating rate ([1]; hSC-CMs, 2 and 24 h): more than 20%
activity at 0.03 µM ([2]; 2h): 194%
activity at 0.03 µM ([2]; 24h): 95%
activity at 0.3 µM ([2]; 2h): 130%
activity at 0.3 µM ([2]; 24h): 93%
activity at 3 µM ([2]; 2h): 110%
activity at 3 µM ([2]; 24h): 217%
activity at 30 µM ([2]; 2h): 62%
activity at 30 µM ([2]; 24h): 428%
Apoptosis (caspase-3/7 activation), result in words [2]: induced apoptosis in hSC-CMs with a fast onset
Time to reach the maximum number of apoptotic cells [2]: ≤ 12 h
viability at 0.03 µM ([3]; 2h): 89%
viability at 0.03 µM ([3]; 24h): 95%
viability at 0.3 µM ([3]; 2h): 85%
viability at 0.3 µM ([3]; 24h): 91%
viability at 3 µM ([3]; 2h): 90%
viability at 3 µM ([3]; 24h): 78%
viability at 30 µM ([3]; 2h): 103%
viability at 30 µM ([3]; 24h): 86%
Decrease of ATP level ([3]; hSC-CMs, after 24 h of incubation): 20–25%

CS(=O)(=O)N1CCN(Cc2cc3nc(-c4cccc5[nH]ncc45)nc(N4CCOCC4)c3s2)CC1 [GDC-0941, 2-(1 H -Indazol-4-yl)-6-(4-methanesulfonyl-piperazin-1-ylmethyl)-4-morpholin-4-yl-thieno[3,2-d]pyrimidine]
activity at 0.03 µM ([2]; 2h): 157%
activity at 0.03 µM ([2]; 24h): 80%
activity at 0.1 µM ([2]; 0.1 µM, 2h): 138%
activity at 0.1 µM ([2]; 0.1 µM, 24h): 77%
activity at 0.3 µM ([2]; 2h): 106%
activity at 0.3 µM ([2]; 24h): 113%
activity at 1 µM ([2]; 1 µM, 2h): 104%
activity at 1 µM ([2]; 1 µM, 24h): 219%
Apoptosis (caspase-3/7 activation), result in words [2]: induced apoptosis in hSC-CMs with a fast onset
Time to reach the maximum number of apoptotic cells [2]: ≤ 12 h
